# Test results: patent US20240082238A1, “COMPOSITIONS AND METHODS FOR TREATING CANCER” (UNIVERSITY OF IOWA RESEARCH FOUNDATION, priority 2021, published 2024)
# What was measured:
# [1] = system: advanced pancreatic ductal adenocarcinoma (PDAC); settings: patients with advanced PDAC; cited from earlier work
# cancer cell lines = assay: Cytotoxicity (MTS), CIP2b with checkpoint inhibitors; type: cell-based; settings: AZD7762 50 and 75 nM; MK1775 150 and 250 nM
# Protocol: (§1) Cytotoxicity assay. Hec50co cells were seeded at 1500 cells per well in 96-well plates for 24 h in a complete medium. Later, the medium was removed and PTX, CIP2b, or CIP (all dissolved in DMSO and diluted in complete medium) were added to cells as either monotherapies or in combinations, and the plates were incubated for 72 hours. Then, the complete medium was removed and MTS reagent in the complete medium was added to wells, and the plates were incubated for 1-4 hours according to the manufacturer's protocol. Finally, the absorbance was recorded at 490 nm using a Spectra Max plus 384 Microplate Spectrophotometer (Molecular Devices, Sunnyvale, CA). Percentage cell viability was expressed as the average absorbance of the test group relative to that of the control group (untreated cells). The concentration that inhibits proliferation of 50% of cells compared to control (IC50) was calculated using GraphPad Prism (La Jolla, CA). Synergism was detected following the Chou-Talalay method (CI<1 indicates synergism) (Chou T C. Cancer research. 2010; 70(2):440-6, doi: 10.1158/0008-5472.CAN-09-1947) using CompuSyn software (Ver. 1.0).
# Cytotoxicity was evaluated using the MTS assay described above.
# human Topo I = target: T1, human Topo I (Homo sapiens, UniProt P11387); assay: Topoisomerase I inhibition assay (plasmid-based); type: biochemical; settings: drug final concentration 100 μM
# T1 construct: purchased TopoGEN Inc. TG1015-1A
# T1 sequence (P11387 1-765): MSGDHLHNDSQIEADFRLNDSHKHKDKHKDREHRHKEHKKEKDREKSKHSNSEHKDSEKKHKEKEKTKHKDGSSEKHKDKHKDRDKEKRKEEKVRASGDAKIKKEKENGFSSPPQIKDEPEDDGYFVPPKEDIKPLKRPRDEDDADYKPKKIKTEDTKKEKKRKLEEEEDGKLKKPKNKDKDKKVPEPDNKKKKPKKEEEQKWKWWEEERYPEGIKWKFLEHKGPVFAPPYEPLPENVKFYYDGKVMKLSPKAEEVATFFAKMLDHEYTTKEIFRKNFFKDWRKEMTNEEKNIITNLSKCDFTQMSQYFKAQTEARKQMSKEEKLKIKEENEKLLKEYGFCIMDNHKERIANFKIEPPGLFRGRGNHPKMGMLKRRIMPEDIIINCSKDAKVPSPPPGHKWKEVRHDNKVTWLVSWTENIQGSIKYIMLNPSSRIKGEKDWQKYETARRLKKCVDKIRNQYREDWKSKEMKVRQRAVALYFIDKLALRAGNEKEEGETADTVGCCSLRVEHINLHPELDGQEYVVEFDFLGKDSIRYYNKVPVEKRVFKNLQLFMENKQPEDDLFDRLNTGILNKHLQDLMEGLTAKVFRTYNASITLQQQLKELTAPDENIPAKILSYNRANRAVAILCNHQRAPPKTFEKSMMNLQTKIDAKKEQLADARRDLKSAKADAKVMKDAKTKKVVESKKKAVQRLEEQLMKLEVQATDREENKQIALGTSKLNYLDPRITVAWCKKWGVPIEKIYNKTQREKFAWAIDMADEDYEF
# Protocol: Topoisomerase I inhibition assay. A plasmid-based Topo I assay (Cat. No. TG1015-1A, TopoGEN Inc., Buena Vista, CO) was performed according to the manufacturer's instructions. Briefly, 1 μL of the test compounds (PTX, CIP, CIP2b, or CAM) at a concentration of 2 mM, was mixed with 2 μL of the reaction buffer (10× tris-glycine-SDS), and deionized water was added to make 18 μL solution. This was followed by adding 1 μL of supercoiled DNA (SC DNA) and 1 μL of human Topo I (10 U/μL) (drug final concentration was 100 μM). Also, SC DNA±Topo I was used as a control (i.e., not containing drugs). In addition, relaxed DNA was added as another control in this assay. Samples were incubated on a heating block (Isotemp 125 D Digital Heat Block, ThermoFisher Scientific) set at 37° C. for 30 minutes. Then, the reaction was stopped by adding a 5× stop buffer. Samples were then loaded directly into the wells of a 1% agarose gel (Research Products International, Mount Prospect, IL). The gel was run at 150 V until the dye front had traveled approximately 5 cm (run time was approximately 2 hours). The gel was then stained with 1 μg/mL ethidium bromide in deionized water for 15 minutes, and this was followed by de-staining (washing) with deionized water for 30 min before imaging. The image was then taken using an Invitrogen iBright CL 1500 Imaging System (ThermoFisher Scientific). The intensity of the final bands in the gel was quantified using ImageJ, and the results are expressed as the percentage of Topo I inhibition.
# human Topo IIα = target: T2, human Topo IIα (Homo sapiens, UniProt P11388); assay: Topoisomerase II inhibition assay (plasmid-based); type: biochemical; settings: drug final concentration 100 μM; read-out: percentage of Topo II inhibition
# T2 construct: purchased TopoGEN Inc. TG1001-1A
# Protocol: Topoisomerase II inhibition assay. A plasmid-based Topo II assay (Cat. No. TG1001-1A, TopoGEN Inc., Buena Vista, CO) was performed according to the manufacturer's instructions. In this experiment, 1 μL of tested compounds (PTX, CIP, CIP2b, ETO) at a concentration of 2 mM was mixed with 4 μL of the reaction buffer (mixture of buffer A (0.5 M Tris-HCl (pH 8), 1.50 M NaCl, 100 mM MgCl2, 5 mM Dithiothreitol, 300 μg BSA/mL) and buffer B (10× ATP Buffer), and deionized water was added to make 18 μL solution. This was followed by adding 1 μL of catenated DNA and 1 μL of human Topo IIα (8 U/μL) (drug final concentration was 100 μM). Additionally, decatenated DNA (De-CT DNA) and catenated DNA (CT DNA)±Topo II were used as a control (i.e., not containing drugs). Moreover, relaxed DNA was added as another control in this assay. Similar to Topo I assay, samples were then incubated on a heating block set at 37° C. for 30 minutes. Then, the reaction was stopped by the addition of a 5× stop buffer. Samples were then loaded directly into the wells of a 1% agarose gel containing 1 μg/mL ethidium bromide. The gel was run at 150 V until the dye front had traveled approximately 5 cm (run time was approximately 2 h). The gel was then washed with deionized water for 30 minutes before imaging. The image was taken using an Invitrogen iBright CL1500 Imaging System. The intensity of the final bands in the gel was quantified using ImageJ, and the results are expressed as the percentage of Topo II inhibition.
# Hec50co cells = assay: Cytotoxicity assay (MTS), Hec50co cells; type: cell-based, human; settings: 10 μM CIP added to PTX, 72 h
# Protocol: as §1, with “1.0). […]” for “1.0).”
# T2 sequence (P11388 whole entry): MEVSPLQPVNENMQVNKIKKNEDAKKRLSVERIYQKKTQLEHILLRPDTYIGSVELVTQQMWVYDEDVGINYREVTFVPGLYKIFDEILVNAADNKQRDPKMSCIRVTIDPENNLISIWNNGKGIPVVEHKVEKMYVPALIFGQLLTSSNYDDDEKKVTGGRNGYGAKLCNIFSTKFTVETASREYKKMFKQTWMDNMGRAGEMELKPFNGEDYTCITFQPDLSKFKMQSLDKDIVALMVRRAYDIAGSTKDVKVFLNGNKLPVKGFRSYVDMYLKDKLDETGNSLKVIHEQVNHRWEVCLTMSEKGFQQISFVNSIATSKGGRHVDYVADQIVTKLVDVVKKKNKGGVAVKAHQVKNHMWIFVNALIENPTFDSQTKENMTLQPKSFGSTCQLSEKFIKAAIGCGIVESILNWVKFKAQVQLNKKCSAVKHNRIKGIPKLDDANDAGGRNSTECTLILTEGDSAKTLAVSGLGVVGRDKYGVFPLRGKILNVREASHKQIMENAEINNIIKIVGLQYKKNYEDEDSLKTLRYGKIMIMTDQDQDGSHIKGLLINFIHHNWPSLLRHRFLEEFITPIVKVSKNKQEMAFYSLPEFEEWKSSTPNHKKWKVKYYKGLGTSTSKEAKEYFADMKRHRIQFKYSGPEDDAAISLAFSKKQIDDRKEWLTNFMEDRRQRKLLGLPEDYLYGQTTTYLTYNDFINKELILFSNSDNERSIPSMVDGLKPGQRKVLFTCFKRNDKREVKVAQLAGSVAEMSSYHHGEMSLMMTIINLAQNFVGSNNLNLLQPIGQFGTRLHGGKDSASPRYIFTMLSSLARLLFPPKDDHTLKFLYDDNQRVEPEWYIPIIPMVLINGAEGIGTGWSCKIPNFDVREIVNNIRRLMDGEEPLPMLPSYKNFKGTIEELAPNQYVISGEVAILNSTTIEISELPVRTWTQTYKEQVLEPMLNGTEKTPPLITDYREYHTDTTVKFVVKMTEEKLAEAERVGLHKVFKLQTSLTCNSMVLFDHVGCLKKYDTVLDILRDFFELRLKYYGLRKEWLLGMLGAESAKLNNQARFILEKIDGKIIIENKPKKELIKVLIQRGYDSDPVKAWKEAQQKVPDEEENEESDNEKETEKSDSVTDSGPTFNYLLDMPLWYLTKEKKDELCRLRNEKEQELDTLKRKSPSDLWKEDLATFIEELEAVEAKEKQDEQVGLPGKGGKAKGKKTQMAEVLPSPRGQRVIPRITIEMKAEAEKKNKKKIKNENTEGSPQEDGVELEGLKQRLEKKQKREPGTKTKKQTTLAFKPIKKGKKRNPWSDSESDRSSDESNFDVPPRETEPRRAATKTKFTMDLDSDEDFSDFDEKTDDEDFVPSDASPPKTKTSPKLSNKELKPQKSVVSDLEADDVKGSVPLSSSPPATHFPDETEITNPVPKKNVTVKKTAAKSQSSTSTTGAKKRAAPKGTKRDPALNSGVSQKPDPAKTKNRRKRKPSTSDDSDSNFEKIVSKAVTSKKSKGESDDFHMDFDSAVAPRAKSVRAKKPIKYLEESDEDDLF
SMILES,potentiation or synergism in combination with CIP2b (cancer cell lines),Topo I inhibitory activity (gel) (human Topo I),inhibition at 100 µM (human Topo IIα) [%],also measured
Nc1ccn([C@@H]2O[C@H](CO)[C@@H](O)C2(F)F)c(=O)n1 [gemcitabine],,,,median survival [1]: 6.7-6.8 months
"C=CCn1c(=O)c2cnc(Nc3ccc(N4CCN(C)CC4)cc3)nc2n1-c1cccc(C(C)(C)O)n1 [MK1775, adavosertib]",did not show any noticeable potentiation or synergism,,,
"CC[C@@]1(O)C(=O)OCc2c1cc1n(c2=O)Cc2cc3ccccc3nc2-1 [CAM, camptothecin]",,potent inhibitor of Topo I,,
"COc1cc([C@@H]2c3cc4c(cc3[C@@H](O[C@@H]3O[C@@H]5CO[C@@H](C)O[C@H]5[C@H](O)[C@H]3O)[C@H]3COC(=O)[C@H]23)OCO4)cc(OC)c1O [ETO, etoposide]",,,~96,
"O=C(O)c1cn(C2CC2)c2cc(N3CCNCC3)c(F)cc2c1=O [CIP, ciprofloxacin]",,neither PTX nor CIP did inhibit Topo I,62,survival curve of PTX with added compound vs PTX alone (Hec50co cells): superimposed
NC(=O)Nc1cc(-c2cccc(F)c2)sc1C(=O)N[C@H]1CCCNC1 [AZD7762],did not show any noticeable potentiation or synergism,,,
